# Source: patent US8710058B2, “Polymorphic forms of 3-(1-{3-[5-(1-methyl-piperidin-4-ylmethoxy)-pyrimidin-2-yl]-benzyl}-6-oxo-1,6-dihydro-pyridazin-3-yl)-benzonitrile hydrochloride salt and processes of manufacturing thereof” (MERCK PATENT GmbH, priority 2009, dated 2014)
# “Also recorded” adds a separate entry of the source. Where two headings read alike, the source gives them in different places.
# Key:
# [1] = pH 1
# [2] = Water Vapor Sorption isotherm (25° C., SMS DVS); type: physicochemical; settings: for Hygroscopicity classification acc. to Ph. Eur. criteria: up to 98% RH
# Text: The crystalline modifications of the present invention can be characterized according to standard methods which can be found e.g. in Rolf Hilfiker, ‘Polymorphism in the Pharmaceutical Industry’, Wiley-VCH, Weinheim 2006, and references therein, e.g. X-Ray diffraction (XRD; chapter 6), IR and Raman spectroscopy (chapter 5), Differential Scanning calorimetry (DSC) and Thermogravimetric Analysis (TGA) (chapter 3), Water Vapour Sorption Studies (chapter 9), or which can be found e.g. in H. G. Brittain (editor), Polymorphism in Pharmaceutical Solids, Vol. 95, Marcel Dekker Inc., New York 1999 (chapter 6: all there mentioned techniques).
# FIG. 6 depicts the Water Vapour Sorption Isotherm (25° C.) (SMS DVS 1) of crystalline modification A1 of 3-(1-{3-[5-(1-methyl-piperidin-4-ylmethoxy)-pyrimidin-2-yl]-benzyl}-6-oxo-1,6-dihydro-pyridazin-3-yl)-benzonitrile hydrochloride anhydrate.
# FIG. 12 depicts the Water Vapour Sorption Isotherm (25° C.) (SMS DVS Intrinsic) of crystalline modification H1 of 3-(1-{3-[5-(1-methyl-piperidin-4-ylmethoxy)-pyrimidin-2-yl]-benzyl}-6-oxo-1,6-dihydro-pyridazin-3-yl)-benzonitrile hydrochloride hydrate.
# FIG. 18 depicts the Water Vapour Sorption Isotherm (25° C.) (SMS DVS Advantage) of crystalline modification NF3 of 3-(1-{3-[5-(1-methyl-piperidin-4-ylmethoxy)-pyrimidin-2-yl]-benzyl}-6-oxo-1,6-dihydro-pyridazin-3-yl)-benzonitrile hydrochloride hydrate.
# FIG. 25 depicts the Water Vapour Sorption Isotherm (25° C.) (SMS DVS Intrinsic) of crystalline modification H2 of 3-(1-{3-[5-(1-methyl-piperidin-4-ylmethoxy)-pyrimidin-2-yl]-benzyl}-6-oxo-1,6-dihydro-pyridazin-3-yl)-benzonitrile hydrochloride monohydrate.
# FIG. 33 depicts the Water Vapour Sorption Isotherm (25° C.) (SMS DVS Intrinsic) of crystalline modification NF6 of 3-(1-{3-[5-(1-methyl-piperidin-4-ylmethoxy)-pyrimidin-2-yl]-benzyl}-6-oxo-1,6-dihydro-pyridazin-3-yl)-benzonitrile hydrochloride anhydrate.
# FIG. 38 depicts the Water Vapour Sorption Isotherm (25° C.) (SMS DVS Intrinsic) of crystalline modification NF2 of 3-(1-{3-[5-(1-methyl-piperidin-4-ylmethoxy)-pyrimidin-2-yl]-benzyl}-6-oxo-1,6-dihydro-pyridazin-3-yl)-benzonitrile hydrochloride hydrate.
# [3] = Kinetic solubility (after 60 minutes) in 0.1 N HCl; settings: 0.1 N HCl (pH 1.0); for Kinetic Solubility (after 60 minutes): room temperature (approx. 20-25° C.)
# [4] = Thermodynamic solubility in 0.1 N HCl at 37° C.; settings: 0.1 N HCl (pH 1.0); for Thermodynamic Solubility: 37° C.
# [5] = Solubility in Simulated Gastric Fluid (acc. to USP); settings: 20 °C, thermodynamic from solid
# [6] = Competitive binary slurry conversion experiments (thermodynamic stability of hydrate forms); settings: different solvents at 25° C. and 50° C.
structure (smiles),measurement,setting,value
"CN1CCC(COc2cnc(-c3cccc(Cn4nc(-c5cccc(C#N)c5)ccc4=O)c3)nc2)CC1.Cl [crystalline modification NF6, 3-(1-{3-[5-(1-methyl-piperidin-4-ylmethoxy)-pyrimidin-2-yl]-benzyl}-6-oxo-1,6-dihydro-pyridazin-3-yl)-benzonitrile hydrochloride anhydrate]",Thermodynamic Solubility,[1],> 200 µg/mL
same,Water uptake,"[2]; 2nd adsorption cycle, up to 70% RH",approx. 8 wt %
same,Water uptake in initial sorption stage,[2]; initial sorption stage at 40% relative humidity,pronounced water uptake
"CN1CCC(COc2cnc(-c3cccc(Cn4nc(-c5cccc(C#N)c5)ccc4=O)c3)nc2)CC1.Cl.O [crystalline modification H1, 3-(1-{3-[5-(1-methyl-piperidin-4-ylmethoxy)-pyrimidin-2-yl]-benzyl}-6-oxo-1,6-dihydro-pyridazin-3-yl)-benzonitrile hydrochloride hydrate]",Kinetic Solubility (after 60 minutes),[3]; hydrochloride hydrate,approx. 3 μg/mL
same,Solubility compared to crystalline modification H2,[3]; kinetic solubility,significantly increased solubility
same,Water uptake level,[2]; at 80% RH,> 15 wt %
same,Hygroscopic behaviour,[2]; relative humidity levels >70%,strongly hygroscopic
"CN1CCC(COc2cnc(-c3cccc(Cn4nc(-c5cccc(C#N)c5)ccc4=O)c3)nc2)CC1.Cl.O [crystalline modification NF3, 3-(1-{3-[5-(1-methyl-piperidin-4-ylmethoxy)-pyrimidin-2-yl]-benzyl}-6-oxo-1,6-dihydro-pyridazin-3-yl)-benzonitrile hydrochloride hydrate]",Thermodynamic Solubility,[4]; hydrochloride hydrate,approx. 70 μg/mL
same,Solubility compared to crystalline modification H2,[4]; thermodynamic solubility,significantly increased solubility
same,Water uptake level,[2]; at 98% relative humidity,approx. 9 wt %
same,Behaviour of hydrate water under dry RH conditions,[2]; hydrochloride hydrate,dehydration of hydrate water occurs
same,Hygroscopicity classification acc. to Ph. Eur. criteria,[2]; hydrochloride hydrate,slightly-hygroscopic
"CN1CCC(COc2cnc(-c3cccc(Cn4nc(-c5cccc(C#N)c5)ccc4=O)c3)nc2)CC1.Cl.O [crystalline modification NF2, 3-(1-{3-[5-(1-methyl-piperidin-4-ylmethoxy)-pyrimidin-2-yl]-benzyl}-6-oxo-1,6-dihydro-pyridazin-3-yl)-benzonitrile hydrochloride hydrate]",Weight loss in water vapor sorption,[2]; initial 40% RH sorption stage,~10 wt %
"CN1CCC(COc2cnc(-c3cccc(Cn4nc(-c5cccc(C#N)c5)ccc4=O)c3)nc2)CC1.Cl [crystalline modification A1, 3-(1-{3-[5-(1-methyl-piperidin-4-ylmethoxy)-pyrimidin-2-yl]-benzyl}-6-oxo-1,6-dihydro-pyridazin-3-yl)-benzonitrile hydrochloride anhydrate]",Hygroscopic behavior,[2]; at 98% RH,strongly hygroscopic
same,Water uptake level,[2]; at 98% relative humidity,> 15 wt %
same,Water uptake upon adsorption,[2]; range 0-90% relative humidity,very small water uptake levels
"CN1CCC(COc2cnc(-c3cccc(Cn4nc(-c5cccc(C#N)c5)ccc4=O)c3)nc2)CC1.Cl.O [crystalline modification H2, 3-(1-{3-[5-(1-methyl-piperidin-4-ylmethoxy)-pyrimidin-2-yl]-benzyl}-6-oxo-1,6-dihydro-pyridazin-3-yl)-benzonitrile hydrochloride monohydrate]",Thermodynamic Solubility,[4]; hydrochloride monohydrate,approx. 28 μg/mL
same,Kinetic Solubility (after 60 minutes),[3]; hydrochloride monohydrate,approx. 0.3 μg/mL
same,solubility,[5],~20 µg/mL
same,Behaviour of hydrate water under dry RH conditions,[2]; hydrochloride monohydrate,no loss of hydrate water
same,Hygroscopicity classification acc. to Ph. Eur. criteria,[2]; hydrochloride monohydrate,non-hygroscopic
same,Water uptake,"[2]; up to 98% relative humidity (RH range 0-98%), hydrochloride monohydrate",small water uptake levels; also recorded: very small water uptake levels
same,Thermodynamic stability compared to other hydrate forms H1 and NF3,[6],thermodynamically stable hydrate form
